IC50 and CC50 data for six compounds are collected here from US20230286969A1, “AROMATIC SPIRO RING AMIDE DERIVATIVES FOR THE TREATMENT AND PROPHYLAXIS OF HEPATITIS B VIRUS INFECTION” (Hoffmann-La Roche Inc., priority 2020, published 2023).

Like-named read-outs stand apart in the source and are kept apart here. Bounds are passed on as bounds.

Common to all, as to type: cell-based
One data set relates to HBsAg. The data set can be described thus: PHH HBV natural infection assay, HBsAg (alphalisa). Put shortly:
(§1)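 Primary human hepatocytes infected with HBV at 200 GE/cell plus 4% PEG8000 for 24 h, then sandwich-cultured 72 h. Compounds were added in two refreshes 72 h apart. HBsAg and HBeAg in supernatant measured by AlphaLISA.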
On the technique in general: Bead proximity is the source of the signal in Alpha formats.

Another data set has as its system HBeAg. Nature of the data set: PHH HBV natural infection assay, HBeAg (alphalisa). The method in brief: as §1
For data set [1], the system named is primary human hepatocyte (PHH). Nature of the data set: PHH natural infection assay, cytotoxicity (Cell Counting Kit-8). The note with it: HBV-infected primary human hepatocytes, CCK8, end of treatment. The method in brief: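 HBV-infected at 200 GE/cell with 4% PEG8000 for 24 h, then sandwich-cultured 72 h in 1% DMSO and 0.25 mg/mL matrix gel. Compound added twice at 72-h intervals; supernatant HBsAg and HBeAg read by AlphaLISA, HBV DNA by quantitative fluorescence PCR kit. Cytotoxicity by CCK-8.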
A general note: Tetrazolium dyes change colour on reduction, which living cells bring about.

Where [2] appears, read: read-out: HBsAg IC50; HBV-infected primary human hepatocytes, supernatant, compound medium refreshed two times with 72-hour interval.
The mark [3] stands for this setting: read-out: HbeAg IC50; HBV-infected primary human hepatocytes, supernatant, compound medium refreshed two times with 72-hour interval.

With `N=S(=O)(CC1CC1)c1ccc(C(=O)NC2CC3(C2)CC(c2nc4cc(Cl)ccc4o2)C3)o1` (single isomer, unassigned) [Example 54-a, N-[6-(5-chloro-1,3-benzoxazol-2-yl)spiro[3.3]heptan-2-yl]-5-(cyclopropylmethylsulfonimidoyl)furan-2-carboxamide], the IC50 in the data set with HBsAg (setting [2]) was 6060 nM; in the data set on HBeAg (setting [3]) it was 5700 nM. In data set [1], this compound registered a CC50 above 10000 nM.
On to `N=S(=O)(c1ccc(C(=O)NC2CC3(C2)CC(c2nc4cc(Cl)ccc4o2)C3)o1)C1CC1` (single isomer, unassigned) [Example 53-a, N-[6-(5-chloro-1,3-benzoxazol-2-yl)spiro[3.3]heptan-2-yl]-5-(cyclopropylsulfonimidoyl)furan-2-carboxamide], for which the IC50 in the data set on HBsAg (setting [2]) worked out at 1890 nM; in the data set with HBeAg (setting [3]), 1270 nM. In addition, the 50% cytotoxic concentration (CC50) in data set [1] was above 10000 nM.
Turning to `CS(=N)(=O)c1ccc(C(=O)NC2CC3(C2)CC(c2nc4cc(Cl)ccc4o2)C3)o1` (single isomer, unassigned) [Example 52-c, N-[6-(5-chloro-1,3-benzoxazol-2-yl)spiro[3.3]heptan-2-yl]-5-(methylsulfonimidoyl)furan-2-carboxamide], the IC50 with HBsAg (setting [2]) worked out at 5040 nM; with HBeAg (setting [3]), 3610 nM. The 50% cytotoxic concentration (CC50) in data set [1] was above 100000 nM.
As to `NS(=O)(=O)c1ccc(C(=O)NC2CC3(C2)CC(c2nc4cc(Cl)ccc4o2)C3)o1` (single isomer, unassigned) [Example 29-b, N-[6-(5-chloro-1,3-benzoxazol-2-yl)spiro[3.3]heptan-2-yl]-5-sulfamoyl-furan-2-carboxamide], the IC50 was determined as 1550 nM in the data set on HBsAg (setting [2]) and 909 nM with HBeAg (setting [3]). Moreover, the CC50 in data set [1] was above 100000 nM.
Consider `CCC(=O)NS(=O)(=O)c1ccc(C(=O)NC2CC3(C2)CC(c2nc4cc(Cl)ccc4o2)C3)o1` (stereo not drawn) [Example 68, (Sa)—N-[6-(5-chloro-1,3-benzoxazol-2-yl)spiro[3.3]heptan-2-yl]-5-(propanoylsulfamoyl)furan-2-carboxamide, or (Ra)—N-[6-(5-chloro-1,3-benzoxazol-2-yl)spiro[3.3]heptan-2-yl]-5-(propanoylsulfamoyl)furan-2-carboxamide], for which the half-maximal inhibitory concentration (IC50) is 626 nM in the data set on HBsAg (HBV-infected primary human hepatocytes, supernatant, compound medium refreshed two times with 72-hour interval; read-out: HBsAg IC50) and 371 nM in the data set with HBeAg (HBV-infected primary human hepatocytes, supernatant, compound medium refreshed two times with 72-hour interval; read-out: HbeAg IC50). Also, the CC50 in data set [1] was above 100000 nM.
In the case of `O=C(NC1CC2(C1)CC(c1nc3cc(Cl)cnc3o1)C2)c1ccc(S(=O)(=O)C2CC2)o1` (single isomer, unassigned) [Example 49-b, N-[6-(6-chlorooxazolo[5,4-b]pyridin-2-yl)spiro[3.3]heptan-2-yl]-5-cyclopropylsulfonyl-furan-2-carboxamide], the concentration for half-maximal inhibition (IC50) turned out to be 647 nM in the data set on HBsAg (setting [2]) and 626 nM with HBeAg (setting [3]). Besides, in data set [1], the 50% cytotoxic concentration (CC50) stood at 91500 nM.

The term IC50 denotes the concentration that gives 50% inhibition. One may read the CC50 as the concentration that lowers cell viability or growth by half. High values mean better tolerance by the cells, low ones harm at low concentration.
